Article PMC7096397, “Improving the drug-likeness of inspiring natural products - evaluation of the antiparasitic activity against Trypanosoma cruzi through semi-synthetic and simplified analogues of licarin A” (Scientific Reports, 2020)
Entries after “also recorded” stand apart in the source; their conditions may differ. Read-outs that look alike come from different tables or passages of the source.

Assays:
[1] = test system: T. cruzi (Y strain) trypomastigotes; test: Anti-trypomastigote assay (resazurin viability); type: cell-based, Trypanosoma cruzi; conditions: Trypanosoma cruzi, read-out: IC50 trypo
Procedure: (§1) The cells and parasites were kept at 37 °C in a humidified atmosphere containing 5% CO2.
Benznidazole was used as the standard drug. The optical density was determined in FilterMax F5 (Molecular Devices) at 570 nm[38].
(§2) IC50 and CC50 values were calculated using a sigmoid dose-response curves in Graph–Pad Prism 5.0 software (GraphPad Software - San Diego, CA, USA). For the mechanism of action studies one-way ANOVA (Turkey’s Multiple Comparison test) was used for significance (p < 0.05). The assays were repeated at least twice and the samples were tested in duplicate.

[2] = test system: T. cruzi intracellular amastigotes; test: Anti-amastigote assay in infected peritoneal macrophages (infection index); type: cell-based, Trypanosoma cruzi; conditions: Trypanosoma cruzi, Peritoneal macrophage, in Mus musculus, 48 h, read-out: IC50 Ama
Procedure: as §1
The cells were plated on a 16-well chamber slide – NUNC (Thermo Fisher Scientific) at 1 × 10^5 cells/well and incubated for 24 h at 37 °C in a 5% CO2 humidified incubator. […] Tested compounds were subsequently incubated with infected macrophages for 48 h at 37 °C (5% CO2 humidified incubator) in different nontoxic concentrations. Benznidazole was used as standard drug. At the end of the assay, slides were fixed with MeOH and stained with Giemsa, counted under a light microscope (EVOS M5000, Thermo, USA) and IC50 values were determined by the infection index.
as §2

[3] = Cytotoxicity against mammalian cells (MTT); type: cell-based, Murine; conditions: mouse, NCTC clone L929 cells
Procedure: Rhesus monkey kidney cells (LLC-MK2-ATCC CCL 7) were used for the maintenance of trypomastigotes of T. cruzi (Y strain) using RPMI-1640 medium supplemented with 2% fetal bovine serum (FBS). The cells and parasites were kept at 37 °C in a humidified atmosphere containing 5% CO2. Peritoneal macrophages, used in the experiments of anti-amastigote assay, were obtained by washing the peritoneal cavity of BALB/c mice, with RPMI-1640 medium supplemented with 10% FBS and kept at 37 °C in a 5% CO2 humidified incubator. Murine conjunctive cells (NCTC clone 929, ATCC) and LLC-MK2 were kept in RPMI-1640 supplemented with 10% FBS at the same conditions described above.
NCTC cells-clone L929 (6 × 10^4 cells/well) were seeded and incubated with tested compounds (200–1.56 µM) for 48 h at 37 °C in a 5% CO2 humidified incubator. Cytotoxic concentration (CC50) was determined by MTT assay. Optical density was determined in FilterMax F5 (Molecular Devices) at 570 nm. Selectivity Index (SI) was determined using the following ratio: CC50 against NCTC cells/IC50 against parasites.
as §2

[4] = PAMPA intestinal model (GIT); type: in vitro ADME
Procedure: Intestinal permeability of tested compounds was estimated applying the PAMPA model previously developed and validated. Briefly, stock solutions were prepared in dimethyl sulfoxide (DMSO) at the concentrations of 10 mM and then diluted with Tris buffer to give the final concentration donor solution at 300 µM and 5% DMSO. The assay procedure was initiated by filling each well of the microtiter plate (MultiScreen, catalogue no. MATRNPS50, Millipore Corporation, Bedford, MA, USA) with 300 μL of each donor drug solution. Carefully, and avoiding the pipette tip contact with the filter, the hydrophobic filter (0.45 μm) of each acceptor well of the 96-well microfilter plate (MultiScreen-IP, catalogue no. MAIPNTR10, Millipore Corporation, Bedford, MA, USA) was adsorbed with 6 μL of the artificial lipid solution which was composed of 2% of L-α-phosphatidylcholine from soybean dissolved, by sonication, in n-dodecane. Immediately after this application, 150 μL of Tris buffer containing 5% DMSO was added to the receiving well. The receiving well was mounted on the donor plate, keeping the underside of the membrane in contact with the donor solution. The assembled donor–acceptor plates were incubated under constant stirring (3 g) at 25 °C for approximately 16 h. Subsequently, the quantity of each compound presented at the receptor solution (150 μL) was determined by UV/VIS spectrophotometrically.

PAMPA-BBB model = type: in vitro ADME
Procedure: The methodology herein applied was similar to that described in the previous section, however with the purpose of assessing the permeability of the compounds through the blood brain barrier (BBB). Thus, stock solutions (10 mM) of each test compound were prepared in DMSO and diluted with phosphate buffered saline (PBS) at pH 7.4. The final concentration of donor solutions was 300 μM and DMSO of 5%. Artificial membrane lipid solutions were prepared daily by dissolving, in n-dodecane, the porcine brain lipid extracted as described[40] at the final concentration of 2% (m/v). PAMPA procedure was similar to that described in the previous section although, in PAMPA-BBB, the donor and acceptor solutions were prepared using phosphate buffer saline (PBS) at pH 7.4 and the Papp was obtained through the equation previously reported.

T. cruzi trypomastigotes [5] = test: Plasma membrane permeability, Sytox Green probe; type: cell-based, Trypanosoma cruzi; conditions: at IC50, up to 120 min, vs untreated parasites
Procedure: The action of compounds 1d, 1e, 3d and 4a in the cell membrane permeability were evaluated in T. cruzi trypomastigotes (2 × 10^6/well) seeded in 96-well black polystyrene microplates. Parasites were washed and incubated in the dark with 1 μM SYTOX Green probe (Molecular Probes) in HANKS’ balanced salts solution (HBSS; Sigma-Aldrich) supplemented with 10 mM D-Glucose (HBSS + Glu) in 96-well black polystyrene microplates[43],[44]. […] The maximum permeabilization was obtained with the addiction of 0.5% Triton X-100. Fluorescence intensities were determined using a fluorimetric microplate reader (FilterMax F5 Multi-Mode Microplate Reader-Molecular Devices) with excitation and emission wavelengths of 485 and 520 nm, respectively. The following internal controls were used in the evaluation: i) the background fluorescence of the compound at the respective wavelengths, ii) the possible interference of DMSO.

T. cruzi trypomastigotes [6] = test: Reactive oxygen species (ROS) generation, H2DCFDA probe; type: cell-based, Trypanosoma cruzi; conditions: for ROS generation: at IC50, 1 h of treatment; for ROS levels: at IC50, 2 h of treatment
Procedure: After, H2DCFDA probe (Molecular Probes) was added (5 µM) and incubated by 15 min[44]. The fluorescence intensity was measure using a fluorimetric microplate reader (FilterMax F5 Multi-Mode, Molecular Devices) with excitation and emission wavelengths of 485 and 520 nm, respectively. Azide (10 mM) was used as positive control and untreated parasites were used as negative control.

T. cruzi trypomastigotes [7] = test: ATP generation (luciferin/luciferase); type: cell-based, Trypanosoma cruzi; conditions: at IC50, 2 h of incubation
Procedure: Untreated parasites and treated with the mitochondrial uncoupler CCCP (carbonyl cyanide m-chlorophenylhydrazone - Sigma) at 100 µM, were used as positive and negative controls, respectively. […] Luminescence intensity was measured using a luminometer (FilterMax F5 Multi-Mode, Molecular Devices) and the amount of ATP was calculated from an ATP standard curve.

T. cruzi trypomastigotes [8] = test: Mitochondrial membrane potential, JC-1 flow cytometry; type: cell-based, Trypanosoma cruzi; conditions: at IC50, 2 h
Procedure: The ΔΨm were analyzed by flow cytometry (Attune NxT flow cytometer - ThermoFisher) with the probe 5,5′,6,6′-tetrachloro-1,1′,3,3′-tetraethylbenzimidazole carbocyanide iodide (JC-1, ThermoFisher). The ratio between red/green fluorescence intensities (BL-2/BL-1; 590 nm/530 nm) were calculated[45],[46]. […] The parasites were incubated in the dark for 10 min at 37 °C and washed in HBSS + Glu to eliminate the non-internalized dye. As internal controls of the assay were used: (i) non-treated cells and (ii) trypomastigotes treated with 100 μM CCCP.

[9] = PAMPA intestinal model (GIT); type: in vitro ADME; conditions: read-out: plasma protein binding percentage
[10] = T. cruzi trypomastigotes, 24 h incubation, resazurin
[11] = intracellular amastigotes in BALB/c peritoneal macrophages
[12] = PAMPA intestinal model, 300 µM donor, Tris buffer, 25 °C, 16 h, read-out: Papp GIT
[13] = PAMPA-BBB model, 300 µM donor, PBS pH 7.4, read-out: Papp BBB

C=CCc1cc([C@H]2Oc3c(OC)cc(/C=C/C)cc3[C@@H]2C)cc(OC)c1O [1d, 2-allyl-6-methoxy-4-[(2S,3 S)-7-methoxy-3-methyl-5-[(E)-prop-1-enyl]-2,3-dihydrobenzofuran-2-yl]phenol]
IC50 [1, 10]: 5 ± 0.8 µM | IC50 [2, 11]: > 100 µM | CC50 at 48 h [3]: 45.5 ± 16.7 µM | Papp at 16 h, 300 µM ([4]; PAMPA): 0.38 ×10⁻⁶ cm/s | Papp at 16 h, 300 µM (PAMPA-BBB model; PAMPA, pH 7.4): 0.28 ×10⁻⁶ cm/s | Sytox Green fluorescence levels (plasma membrane permeability) (T. cruzi trypomastigotes [5]): no changes in the fluorescence levels | ROS generation (T. cruzi trypomastigotes [6]): increased the reactive oxygen species (ROS) levels; also recorded: increased ROS generation | ROS levels (T. cruzi trypomastigotes [6]): drop of the levels | ATP levels (T. cruzi trypomastigotes [7]): increased ATP production | mitochondrial membrane potential (T. cruzi trypomastigotes [8]): induced hyperpolarization of mitochondrial membrane potential; also recorded: mitochondrial hyperpolarization, but with no statistical significance

C=CCc1ccc(O)c(OC)c1 [compound 5, eugenol]
IC50 ([1]; 24 h): > 100 µM | IC50 [2]: > 100 µM | CC50 at 48 h [3]: > 200 µM | Papp at 16 h, 300 µM [4, 12]: 14.4 ×10⁻⁶ cm/s | Papp at 16 h, 300 µM (PAMPA-BBB model; [13]): 3.98 ×10⁻⁶ cm/s | fraction unbound at 16 h, 300 µM [9]: < 0.1

C/C=C/c1cc(OC)c2c(c1)[C@H](C)[C@@H](c1cc(OC)c3oc(C)cc3c1)O2 [1e, 7-methoxy-5-[(2 S,3 S)-7-methoxy-3-methyl-5-[(E)-prop-1-enyl]-2,3-dihydrobenzofuran-2-yl]-2-methyl-benzofuran]
IC50 [1, 10]: 10.5 ± 5.7 µM | IC50 [2, 11]: > 100 µM | CC50 at 48 h [3]: > 200 µM | Papp at 16 h, 300 µM ([4]; PAMPA): 0.55 ×10⁻⁶ cm/s | Papp at 16 h, 300 µM (PAMPA-BBB model; PAMPA, pH 7.4): 0.23 ×10⁻⁶ cm/s | Sytox Green fluorescence levels (plasma membrane permeability) (T. cruzi trypomastigotes [5]): exception of 1e after 120 min | ROS generation (T. cruzi trypomastigotes [6]): increased the reactive oxygen species (ROS) levels; also recorded: increased ROS generation | ROS levels (T. cruzi trypomastigotes [6]): drop of the levels | ATP levels (T. cruzi trypomastigotes [7]): no significant alterations in ATP levels | mitochondrial membrane potential (T. cruzi trypomastigotes [8]): induced hyperpolarization of mitochondrial membrane potential; also recorded: mitochondrial hyperpolarization, but with no statistical significance

C/C=C/c1ccc(OC)c(OC)c1 [4a, 1,2-dimethoxy-4-[(E)-prop-1-enyl]benzene]
IC50 ([1]; 24 h): 8.8 ± 2 µM | IC50 [2]: > 100 µM | CC50 at 48 h [3]: > 200 µM | Papp at 16 h, 300 µM [4, 12]: 15.9 ×10⁻⁶ cm/s | Papp at 16 h, 300 µM (PAMPA-BBB model; [13]): 1.29 ×10⁻⁶ cm/s | Sytox Green fluorescence levels (plasma membrane permeability) (T. cruzi trypomastigotes [5]): no changes in the fluorescence levels | ROS generation (T. cruzi trypomastigotes [6]): increased the reactive oxygen species (ROS) levels; also recorded: increased ROS generation | ROS levels (T. cruzi trypomastigotes [6]): drop of the levels | ATP levels (T. cruzi trypomastigotes [7]): increased ATP production | fraction unbound at 16 h, 300 µM [9]: < 0.1

COc1ccc(C=O)cc1OC [2a, 3,4-dimethoxybenzaldehyde]
IC50 ([1]; 24 h): > 100 µM | IC50 [2]: > 100 µM | CC50 at 48 h [3]: > 200 µM | Papp at 16 h, 300 µM [4, 12]: 20.7 ×10⁻⁶ cm/s | Papp at 16 h, 300 µM (PAMPA-BBB model; [13]): 7 ×10⁻⁶ cm/s | fraction unbound at 16 h, 300 µM [9]: < 0.1

COc1cc(CO)ccc1OC(C)=O [3b, [4-(hydroxymethyl)-2-methoxy-phenyl] acetate]
IC50 [1, 10]: 5.1 ± 0.7 µM | IC50 [2, 11]: > 100 µM | CC50 at 48 h [3]: 45.8 ± 14.9 µM | Papp at 16 h, 300 µM ([4]; PAMPA): 5.07 ×10⁻⁶ cm/s | Papp at 16 h, 300 µM (PAMPA-BBB model; PAMPA, pH 7.4): 3.67 ×10⁻⁶ cm/s | Sytox Green fluorescence levels (plasma membrane permeability) (T. cruzi trypomastigotes [5]): no changes in the fluorescence levels | ROS generation (T. cruzi trypomastigotes [6]): increased ROS generation | ROS levels (T. cruzi trypomastigotes [6]): drop of the levels | ATP levels (T. cruzi trypomastigotes [7]): increased ATP production | mitochondrial membrane potential (T. cruzi trypomastigotes [8]): mitochondrial hyperpolarization, but with no statistical significance
